Data set [1] can be described thus: Human Hepatocyte Stability. Conditions: human hepatocytes 0.5×10^6 cells/mL, 120 min; for half-life at 1 μM: read-out: T1/2 (hepatic); for microsomal CLint at 1 μM: read-out: in vitro CLint (hepatic). Format: in vitro ADME. The procedure: The tested compound was incubated in duplicate with incubation media (Williams' Medium E with 1× GlutaMAX) containing human hepatocytes (0.5×10^6 cells/mL). These incubations were carried out at a final test concentration of 1 μM over a total incubation period of 120 minutes. Samples were taken at 0, 15, 30, 60, 90 and 120 min and the reaction was terminated by addition of acetonitrile containing internal standard (100 nM alprazolam, 200 nM labetalol, 200 nM caffeine and 200 nM diclofenac). Verapamil was used as the positive control in this study. The samples were analyzed by UPLC-MS/MS to determine the concentration of the tested compound and the percentage remaining, intrinsic clearance (in vitro CLint) and half-life (t½) values were calculated.
Chromatographic analyses were performed on a Shimadzu UPLC apparatus (Kyoto, Japan) consisting of a gradient pump (model LC-30AD), an automatic injector (model HTC PAL System) and an on-line degasser (model DGU-20A5R). Detection was a triple quadrupole tandem mass spectrometer equipped with a turbo ion spray interface (API 4000/Triple Quad 4500/Triple Quad 5500/Triple Quad 6500). Data acquisition and integration were carried out with LC-MS software (Analyst 1.6) linked directly to the LC-MS/MS system. Chromatographic separations were achieved on a XSelect Hss T3 2.5μ (2.1×30 mm) Column. The mobile phase was 0.1% formic acid in water (A) and 0.1% formic acid in acetonitrile (B). The flow rate was 1.0 mL/min and column was maintained at 40° C.
Half-life (T1/2) data is measured in minutes, and in Table B2, the data is grouped into categories of by the following rules: • T1/2 (hepatic): A=200+; B=100 to 200; C=50 to 100; and D<50.
In vitro clearance (CLint) data is measured in μL/min/mg prot, and in Table B3, the data is grouped into categories of by the following rules: • CLint (microsomal): A<5; B=5 to 10; C=10 to 20; and D=20+.

For another data set, the target named is T1, EP2 receptor (Homo sapiens, UniProt P43116).
T1 construct: expressed in transfected cells; host or cells: CHO-K1 cells (ATCC), transient transfection with FuGENE 6
Briefly: EP2 Potency Assay (cAMP TR-FRET, CHO-K1 cells transfected with EP2 receptor, PGE2 at EC80). Format: cell-based. Conditions: CHO-K1 cells expressing EP2, prostaglandin E2 at EC80, read-out: EP2 Potency (IC50 category). An outline of the steps: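 CHO-K1 cells transiently transfected with EP2 and seeded 24 h after transfection. IC50 from curve fit of percent inhibition versus concentration.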

T1 sequence (P43116 whole entry): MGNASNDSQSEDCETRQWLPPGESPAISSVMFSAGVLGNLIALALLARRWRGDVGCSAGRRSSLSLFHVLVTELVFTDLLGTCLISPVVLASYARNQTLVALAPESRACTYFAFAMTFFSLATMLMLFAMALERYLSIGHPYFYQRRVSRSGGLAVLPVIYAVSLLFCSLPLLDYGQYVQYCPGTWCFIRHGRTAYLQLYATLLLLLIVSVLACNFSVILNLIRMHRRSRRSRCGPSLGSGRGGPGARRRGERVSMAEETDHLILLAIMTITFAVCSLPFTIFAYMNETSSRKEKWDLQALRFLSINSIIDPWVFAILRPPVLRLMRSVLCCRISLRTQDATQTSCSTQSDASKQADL

Consider `COc1ncc(CN2CCOc3c(Cl)cc(-n4ccc5c(F)c(F)ccc54)cc3C2)cn1` [Compound 25], for which, in data set [1], the half-life at 1 μM fell in the range of 1.67 to 3.33 h and the microsomal CLint at 1 μM lay within 10 to 20 µL/min/mg. The 50% inhibitory concentration (IC50) at EP2 receptor is 100 to 500 nM.
Consider `O=c1cc(CN2CCOc3c(Cl)cc(-n4ccc5cc(F)ccc54)cc3C2)cn[nH]1` [Compound 169, 5-{[9-chloro-7-(5-fluoroindol-1-yl)-3,5-dihydro-2H-1,4-benzoxazepin-4-yl]methyl}-2H-pyridazin-3-one], for which, in data set [1], the half-life at 1 μM was 1.67 to 3.33 h and the microsomal CLint at 1 μM is 5 to 10 µL/min/mg. The half-inhibitory concentration (IC50) on EP2 receptor is under 100 nM.
On the same counts, the results for `O=C(O)c1ncc(CN2CCOc3c(Cl)cc(-n4ccc5cc(F)ccc54)cc3C2)cn1` [Compound 144, 5-{[9-chloro-7-(5-fluoroindol-1-yl)-3,5-dihydro-2H-1,4-benzoxazepin-4-yl]methyl}pyrimidine-2-carboxylic acid] are over 3.33 h, under 5 µL/min/mg and under 100 nM.
Taken in the same sequence, the figures for `Cc1[nH]c(=O)ncc1CN1CCOc2c(Cl)cc(-n3ccc4cc(F)ccc43)cc2C1` [Compound 156] were 1.67 to 3.33 h, 5 to 10 µL/min/mg and under 100 nM.
Taken in the same sequence, the figures for `Cc1c(CN2CCOc3c(Cl)cc(-n4ccc5cc(F)ccc54)cc3C2)cc[nH]c1=O` [Compound 194, 4-{[9-chloro-7-(5-fluoroindol-1-yl)-3,5-dihydro-2H-1,4-benzoxazepin-4-yl]methyl}-3-methyl-1H-pyridin-2-one] were 1.67 to 3.33 h, 10 to 20 µL/min/mg and under 100 nM.
As to `O=c1[nH]ccc(CN2CCOc3c(Cl)cc(-n4ccc5cc(F)ccc54)cc3C2)c1F` [Compound 193], in data set [1], the half-life at 1 μM lay in the range of 0.833 to 1.67 h and the microsomal CLint at 1 μM fell in the range of 10 to 20 µL/min/mg. The half-inhibitory concentration (IC50) on EP2 receptor is under 100 nM.
For the compound `COCc1ncc(CN2CCOc3c(Cl)cc(-n4ccc5cc(F)ccc54)cc3C2)cn1` [Compound 142], in data set [1], the half-life at 1 μM was over 3.33 h and the microsomal CLint at 1 μM fell in the range of 5 to 10 µL/min/mg. Further, the IC50 on EP2 receptor was 100 to 500 nM.
Taken in the same sequence, the figures for `Fc1ccc2c(ccn2-c2cc(Cl)c3c(c2)CN(Cc2cc[nH]c(=S)c2)CCO3)c1` [Compound 189, 4-{[9-chloro-7-(5-fluoroindol-1-yl)-3,5-dihydro-2H-1,4-benzoxazepin-4-yl]methyl}-1H-pyridine-2-thione] were 0.833 to 1.67 h, over 20 µL/min/mg and 100 to 500 nM.
Consider `COc1n[nH]cc1CN1CCOc2c(Cl)cc(-n3ccc4cc(F)ccc43)cc2C1` [Compound 105, 9-chloro-7-(5-fluoroindol-1-yl)-4-[(3-methoxy-1H-pyrazol-4-yl)methyl]-3,5-dihydro-2H-1,4-benzoxazepine], for which the concentration for half-maximal inhibition (IC50) on EP2 receptor is over 5000 nM.
Still for that read-out and setting: for `NC(=O)c1ncc(CN2CCOc3c(Cl)cc(-n4ccc5cc(F)ccc54)cc3C2)cn1` [Compound 143, 5-{[9-chloro-7-(5-fluoroindol-1-yl)-3,5-dihydro-2H-1,4-benzoxazepin-4-yl]methyl}pyrimidine-2-carboxamide] the value was 1000 to 5000 nM; for `Oc1cccc(CN2CCOc3c(Cl)cc(-n4ccc5cc(F)ccc54)cc3C2)c1` [Compound 120], over 5000 nM.
Still for that read-out and setting: for `COc1ncc(CN2CCOc3c(Cl)cc(-c4cccc5nccn45)cc3C2)cn1` [Compound 39] the value was 1000 to 5000 nM; for `COc1ncc(CN2CCOc3c(Cl)cc(-n4ccc5cc(Br)ccc54)cc3C2)cn1` [Compound 22], over 5000 nM; for `COc1ncc(CN2CCOc3c(Cl)cc(-n4c(C)cc5cc(F)ccc54)cc3C2)cn1` [Compound 30], 1000 to 5000 nM.
On the same count and under the same terms, to `O=c1ncc(CN2CCOc3c(Cl)cc(-c4coc5ccccc45)cc3C2)c[nH]1` [Compound 84] belongs 100 to 500 nM.
With `Cc1c(CN2CCOc3c(Cl)cc(-n4ccc5cc(F)ccc54)cc3C2)ccnc1Cl` [Compound 191], on EP2 receptor, the concentration for half-maximal inhibition (IC50) was in the range of 1000 to 5000 nM.
The same measure, in the same setting: to `C[C@@H]1c2cc(-n3ccc4cc(F)ccc43)cc(Cl)c2OCCN1Cc1cc[nH]c(=O)c1` (single isomer, unassigned) [Compound 236] belongs over 5000 nM; to `O=c1ncc(CN2CCOc3c(Cl)cc(-n4ccc5cc(Cl)ccc54)cc3C2)c[nH]1` [Compound 62], 100 to 500 nM.
Same read-out and setting: to `O=c1ncc(CN2CCOc3c(Cl)cc(-c4cccc5ccccc45)cc3C2)c[nH]1` [Compound 82] belongs 1000 to 5000 nM.
Turning to `NC(=O)[C@H]1CC[C@H](CN2CCOc3c(Cl)cc(-n4ccc5cc(F)ccc54)cc3C2)CC1` [Compound 126], the half-maximal inhibitory concentration (IC50) on EP2 receptor fell in the range of 500 to 1000 nM.
The same measure, in the same setting: to `O=c1ncc(CN2CCOc3c(Cl)cc(N4CCc5cc(F)ccc54)cc3C2)c[nH]1` [Compound 78] belongs 100 to 500 nM; to `NCc1cc(CN2CCOc3c(Cl)cc(-n4ccc5cc(F)ccc54)cc3C2)ccn1` [Compound 184, 1-(4-{[9-chloro-7-(5-fluoroindol-1-yl)-3,5-dihydro-2H-1,4-benzoxazepin-4-yl]methyl}pyridin-2-yl)methanamine], 1000 to 5000 nM.
On to `O=C(O)c1cc(CN2CCOc3c(Cl)cc(-n4ccc5cc(F)ccc54)cc3C2)ccn1` [Compound 185, 4-{[9-chloro-7-(5-fluoroindol-1-yl)-3,5-dihydro-2H-1,4-benzoxazepin-4-yl]methyl}pyridine-2-carboxylic acid], for which, in data set [1], the half-life at 1 μM is over 3.33 h and the microsomal CLint at 1 μM is under 5 µL/min/mg. Moreover, the IC50 at EP2 receptor was in the range of 100 to 500 nM.
With `Fc1ccc2c(ccn2-c2cc(Cl)c3c(c2)CN(Cc2nnc[nH]2)CCO3)c1` [Compound 109, 9-chloro-7-(5-fluoroindol-1-yl)-4-(4H-1,2,4-triazol-3-ylmethyl)-3,5-dihydro-2H-1,4-benzoxazepine], the IC50 at EP2 receptor was over 5000 nM.
On the same count and under the same terms, for `COc1ncc(CN2CCOc3c(Cl)cc(-n4ccc5cccnc54)cc3C2)cn1` [Compound 32] the value was 1000 to 5000 nM.
Still for that read-out and setting: to `Fc1ccc2c(ccn2-c2cc(Cl)c3c(c2)CN(Cc2cnco2)CCO3)c1` [Compound 93, 9-chloro-7-(5-fluoro-1H-indol-1-yl)-4-(oxazol-5-ylmethyl)-2,3,4,5-tetrahydrobenzo[f][1,4]oxazepine] belongs 500 to 1000 nM.
Still for that read-out and setting: for `Fc1ccc2c(ccn2-c2cc(Cl)c3c(c2)CN(Cc2cccc(C(F)F)c2)CCO3)c1` [Compound 123] the value was over 5000 nM; for `COc1ncc(CN2CCOc3c(Cl)cc(-n4cc(Cl)c5cc(Cl)ccc54)cc3C2)cn1` [Compound 29], over 5000 nM; for `COc1cnc(CN2CCOc3c(Cl)cc(-n4ccc5cc(F)ccc54)cc3C2)cn1` [Compound 172], 1000 to 5000 nM.
Turning to `Fc1ccc2c(ccn2-c2cc(Cl)c3c(c2)CN(Cc2ccnc(Cl)c2F)CCO3)c1` [Compound 190], the concentration for half-maximal inhibition (IC50) at EP2 receptor is 1000 to 5000 nM.
Still for that read-out and setting: to `Nc1nc(CN2CCOc3c(Cl)cc(-n4ccc5cc(F)ccc54)cc3C2)ns1` [Compound 117, 3-{[9-chloro-7-(5-fluoroindol-1-yl)-3,5-dihydro-2H-1,4-benzoxazepin-4-yl]methyl}-1,2,4-thiadiazol-5-amine] belongs over 5000 nM.
The same measure, in the same setting: for `Fc1ccc2c(ccn2-c2cc(Cl)c3c(c2)CN(Cc2cnc(NC4COC4)nc2)CCO3)c1` [Compound 149, 5-{[9-chloro-7-(5-fluoroindol-1-yl)-3,5-dihydro-2H-1,4-benzoxazepin-4-yl]methyl}-N-(oxetan-3-yl)pyrimidin-2-amine] the value was 100 to 500 nM; for `COc1ncc(CN2CCOc3c(Cl)cc(-c4ncc5cc(Cl)ccn45)cc3C2)cn1` [Compound 41, 9-chloro-7-{7-chloroimidazo[1,5-a]pyridin-3-yl}-4-[(2-methoxypyrimidin-5-yl)methyl]-3,5-dihydro-2H-1,4-benzoxazepine], 500 to 1000 nM; for `COc1ncc(CN2CCOc3c(Cl)cc(-c4cccc5c4OCCO5)cc3C2)cn1` [Compound 57], over 5000 nM.
Consider `COc1ncc(CN2CCOc3c(Cl)cc(-n4cc(C(F)(F)F)c5ccccc54)cc3C2)cn1` [Compound 17, 9-chloro-4-[(2-methoxypyrimidin-5-yl)methyl]-7-[3-(trifluoromethyl)indol-1-yl]-3,5-dihydro-2H-1,4-benzoxazepine], for which the concentration for half-maximal inhibition (IC50) at EP2 receptor fell in the range of 1000 to 5000 nM.
The same measure, in the same setting: to `CN(C)C(=O)[C@H]1CC[C@@H](CN2CCOc3c(Cl)cc(-n4ccc5cc(F)ccc54)cc3C2)CC1` [Compound 129] belongs 1000 to 5000 nM; to `O=c1ncc(CN2CCOc3c(Cl)cc(-n4ccc5cnccc54)cc3C2)c[nH]1` [Compound 73], over 5000 nM.

Values taken from patent US12624024B2, “EP2 antagonist compounds” (Reservoir Neuroscience, Inc., priority 2021, dated 2026).
